Data published in US20100092456A1, “METHODS OF TREATMENT” (priority 2006, published 2010).
One block for each compound: values may come before it. No end group written: not given here.

Experiments:
[1] = tested on: nuclear PtdIns4P and PtdIns5P in differentiated MEL cells; assay: Mass assay of nuclear PtdIns4P and PtdIns5P in differentiated MEL cells; assay type: cell-based, Murine; settings: NAC 5 mM or BSO 100 μM for 4 hours, H2O2 500 μM for 15 minutes, vs control-treated cells
Experimental: B) Differentiated MEL cells were treated with NAC (5 mM) or BSO (100 μM), each for 4 hours, or H2O2 (500 μM) for 15 minutes prior to the isolation of intact nuclei. A mass assay was used to determine the levels of PtdIns4P and PtdIns5P. The results are expressed as % of control-treated differentiated MEL cells and are calculated from 3 independent experiments.
MEL, HEK 293 and HT1080 cells were maintained in routine culture using 10% FCS in DMEM. When required, differentiated MEL cells were prepared by the addition of 1.5% DMSO to the culture medium for a period of 4 days. MEL cells were transfected using Effectene (Qiagen), HEK 293 cells with calcium phosphate and HT1080 with LT1 (Mirus corporation). The following plasmids were used: pEGFP, pCDNA3 (both from Clontech), pCDNA3-Flag-MKK6+ and pCDNA3-Flag-MKK6-(from Dr. M. Schmidt, The Netherlands Cancer Institute), pSuper (from Dr. R. Agami, The Netherlands Cancer Institute), pCDNA3-EGFP-IpgD/IpgE, pCDNA3-EGFP-PIP kinase typeIIβ, and RNAi for type II β PIP kinase (termed pSuper-IIβRNAi). The targeting sequence for the latter was […]. Irradiation of the cells with 254 nm UV-C light (0-200 J/m) or gamma rays (0-40 Gy, from a Cesium 137 source) was performed using 6-well or 10 cm plastic petri dishes with a depth of medium covering the cells not exceeding 3-4 mm. Thereafter, the cells were returned to normal culture conditions for 30 minutes before subcellular fractionation was started. To determine long terms effects of UV and gamma irradiation the cells were returned to normal culture conditions for up to 48 hours.
MEL cells were washed, twice in ice cold PBS before their fractionation using a detergent-free hypotonic buffer. This method yields a mixed cytosol and membrane fraction and intact nuclei after separation using a sucrose cushion. MEL cell nuclei were fractionated into nucleoplasm and the CEF using modifications of a previously published method. Briefly, intact MEL cell nuclei were resuspended in ice cold hypotonic buffer (3 mM EDTA, 0.2 mM EGTA and 1 mM DTT pH 7.85, with protease inhibitors) followed by forced passage (12 times) through a 25 gauge needle. After centrifugation (1700 g) the supernatant (the nucleoplasm) was saved. The pellet (CEF) was washed twice before resuspending by sonication in 10 mM TrisHCl, 10% sucrose, 10 mM MgCl2 pH 7.4, with protease inhibitors. The protein content of all fractions was determined using the Bradford reagent (BioRad). PtdIns4P and PtdIns5P were measured using in vitro mass assays employing recombinant type I and type II PIP kinases, respectively. The product PtdIns(4,5)P2 was separated by TLC. The amount of radioactivity found in PtdIns(4,5)P2 was proportional to the amount of PtdInsP isomer in the neomycin affinity-purified lipid extract.
However, no studies have determined a role for nuclear phosphoinositides or defined downstream protein targets mediating phosphoinositide-stress activated pathways. To study changes in nuclear phosphoinositides in response to cellular stress, we used Murine erythroleukaemia (MEL) cells as a model system because preparations of nuclei from these cells have been proven to be of high purity. To visualise changes in phosphoinositides, various independent methods were used. The mass level of both PtdIns4P and PtdIns5P were measured using an assay that relies on the differential in vitro specificities of type I and type II PIP kinases. […] Gamma irradiation (10 Gy) led to a small (approximately 20%) decrease in the PtdIns4P level but no detectable change in the level of PtdIns5P in whole nuclei (FIG. 1a). To determine if nuclear PtdInsPs were regulated by oxidative stress we treated differentiated MEL cells with H2O2, BSO (L-buthionine[S,R]-sulphoximine, a glutamyl-cysteine synthetase inhibitor, which increases intracellular reactive oxygen species (ROS)) or NAC. (N-acetyl-cysteine, which increases cellular glutathione levels and cell' capability to deal with ROS). […]

ING2 = assay: Western blot of endogenous ING2 associated with the CEF of MEL cells; assay type: cell-based, Murine; settings: MEL cells; 200 J/m UV; NAC 5 mM 4 hours, wortmannin 200 nM and 5 μM, curcumin 100 μM
Experimental: FIG. 4. A) Exponentially growing MEL cells were irradiated with either 200 J/m of UV light or 10 Gy of gamma radiation. After 30 minutes the CEF was isolated and the subjected to SDS-PAGE followed by transfer of the separated proteins to a nitrocellulose membrane. Western blotting for endogenous ING2 and histone 4 proteins was performed. Representative western blots are shown. B) Exponentially growing MEL cells were incubated in the absence or presence of N-acetyl cysteine (NAC) (5 mM) for 4 hours prior to a control irradiation or exposed to 200 J/m of UV light before the isolation of the CEF. Differentiated MEL cells were incubated in the absence or presence of H2O2 (500 μM) for 15 minutes prior to the isolation of the CEF. Proteins in the CEF were subjected to SDS-PAGE followed by transfer to a nitrocellulose membrane. Western blotting for endogenous ING2 and histone 4 proteins was performed. Representative western blots are shown. C) MEL cells were preincubated with either vehicle, wortmannin (200 nM and 5 μM) or curcumin (100 μM) were irradiated with 200 J/m of UV light. After 30 minutes the CEF was isolated and proteins were subjected to SDS-PAGE followed by transfer to a nitrocellulose membrane. Western blotting for endogenous ING2 and histone 4 proteins was performed. Representative western blots are shown. D) The CEF from transiently transfected MEL cells with either pSuper or pSuper-IIβRNAi was prepared. Proteins in the CEF were subjected to SDS-PAGE followed by transfer to a nitrocellulose membrane. […] Proteins were analysed by standard western blotting procedures employing the following antibodies: anti-tubulin and anti-flag (both from Sigma), anti-actin (Chemicon International), anti-histone 4 (Upstate Biotechnology), anti-phospho p54, anti-phospho p46, anti-phospho p38, total p54, total p46 and total p38 (all from Cell Signalling Technology) anti-ING2, anti EGFP (Clontech), anti-type II β PIP kinase, anti-GST and anti-myc (both generated in house).

type II β PIP kinase = assay: Type II PIP kinase activity in immunoprecipitates using PtdIns5P as substrate; assay type: cell-based
Experimental: FIG. 3. A) MEL cells were either untransfected or transfected to express myc-type II b PIP kinase. After 40 hours the cells some of the cells were irradiated with 200 J/m of UV light before reculturing for varying times indicated in the figure. The cells were collected and endogenous type II PIP kinase was immunoprecipitated from whole cell lysates using an anti-pan type II b PIP kinase antibody or an anti-myc antibody. Type II PIP kinase activity in the immunoprecipitates was determined using PtdIns5P as the substrate. The results are calculated from 3 independent experiments.
To test this hypothesis endogenous type II PIP kinases were immunoprecipitated from control-treated and UV-irradiated MEL cells and their activities were measured using PtdIns5P as a substrate. […] As the antibody used to immunoprecipitate recognises all type II PIP kinase isoforms, we transfected MEL cells with myc-tagged type II β PIP kinase and measured its activity in immunoprecipitates in response to UV irradiation. […] UV irradiation is known to regulate both stress-activated protein kinases (SAPKs) and mitogen-activated protein kinases (MAPKs) and therefore we determined if any of these UV induced pathways impinged on type II β PIP kinase activity. […] Therefore we assessed whether activation of the p38 pathway alone could mediate type II β PIP kinase inhibition. […]

MEL cells = assay: MEL cell viability and cell cycle profile; assay type: cell-based, Murine; settings: compound alone
Experimental: Ethanol fixed cells were incubated with prodium iodide (20 μg/ml) and RNAse (10 μg/ml) before cell cycle analysis by flow cytometry. Proteins were analysed by standard western blotting procedures employing the following antibodies: anti-tubulin and anti-flag (both from Sigma), anti-actin (Chemicon International), anti-histone 4 (Upstate Biotechnology), anti-phospho p54, anti-phospho p46, anti-phospho p38, total p54, total p46 and total p38 (all from Cell Signalling Technology) anti-ING2, anti EGFP (Clontech), anti-type II β PIP kinase, anti-GST and anti-myc (both generated in house).
To investigate the sub-nuclear localisation of UV-induced nuclear PtdInsPs, we fractionated nuclei to generate nucleoplasm (containing nuclear membranes and soluble nuclear material) and the chromatin enriched fraction (CEF) (FIG. 1c inset). […] Thus, the PtdInsP pool present in the CEF is a target for regulation in response to cellular stress.

[2] = molecular target: T1, PtdIns(4,5)P—F PH domain complex (Homo sapiens, UniProt P51178); assay: Displacement of PtdIns(4,5)P—F from the PH domain complex by unlabelled lipids; assay type: binding
T1 construct: GST-tagged PLCδ1 Pleckstrin homology (PH) domain protein expressed and purified in-house in E. Coli; made in house; host or cells: E. coli
T1 sequence (P51178 21-130 limits assumed): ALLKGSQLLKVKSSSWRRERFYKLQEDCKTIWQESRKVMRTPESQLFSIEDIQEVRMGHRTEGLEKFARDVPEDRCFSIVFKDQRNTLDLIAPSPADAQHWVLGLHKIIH
Experimental: FIG. 7. A 10 nM-1 uM PtdIns(4,5)P—F PH domain complex was incubated with increasing concentrations of unlabelled PtdIns(4,5) P2 (circles) and unlabelled PtdIns5P (squares). The unlabelled product disrupts the complex fully at 1 mM, substrate has no effect at 16 mM, (duplicates).
FIG. 20: A PtdIns(4,5)P—F PH domain complex (10 nM/500 nM) was incubated with increasing concentrations of unlabelled PtdIns(4,5) P2 (triangles) and unlabelled PtdIns4P (diamonds). The unlabelled product disrupts the complex fully at 750 nM, substrate has no effect at 5 μM.

[3] = tested on: PtdIns(4,5)P2 in HeLa cells; assay: PtdIns(4,5)P2 levels visualised with GFP-PH domain of PLCdelta1 probe in HeLa cells; assay type: cell-based; settings: transient, levels quickly recover
Description: Changes in intracellular PtdIns(4,5)P2 levels following stimulation with neurokinin A were visualised in real time using a fusion protein of GFP and the PH domain of PLCdelta1 as a probe. GFP PLC delta 1 is a highly specific in vivo probe for PIP2 in cells.
HeLa cells were transiently transfected with an expression plasmid encoding a fusion protein of GFP and the PH domain of PLCdelta1.
HeLa cells were transiently transfected with an expression plasmid encoding a fusion protein of GFP and the pleckstrin homology domain of PLCdelta1. GFP PLC delta1 is a highly specific in vivo probe for PtdIns(4,5)P2 in cells. Results are in FIG. 10.

Compound: CCCCS(=N)(=O)CCC(N)C(=O)O [BSO, L-buthionine[S,R]-sulphoximine]
level of nuclear PtdIns4P [1]: increased | level of nuclear PtdIns5P [1]: increased

Compound: CC(=O)N[C@@H](CS)C(=O)O [NAC, N-acetyl-cysteine]
UV-induced translocation of endogenous ING2 to the CEF (ING2): did not block | level of nuclear PtdIns4P [1]: lowered | level of nuclear PtdIns5P [1]: lowered

Compound: C[S+]([O-])c1ccc(-c2nc(-c3ccncc3)c(-c3ccc(F)cc3)[nH]2)cc1 (centres unmarked) [SB 203580]
UV light-induced inhibition of type II β PIP kinase activity (type II β PIP kinase; pre-treatment of MEL cells): blocked

Compound: COc1ccc(C[C@H]2NC[C@H](O)[C@H]2OC(C)=O)cc1 [anisomycin]
inhibition of type II β PIP kinase activity (type II β PIP kinase; treatment of cells): approximately 50%

Compound: COC[C@H]1OC(=O)c2coc3c2[C@@]1(C)C1=C(C3=O)[C@@H]2CCC(=O)[C@@]2(C)C[C@H]1OC(C)=O [wortmannin]
effect on the cell cycle profile (MEL cells; MEL cells): no effect | effect on MEL cell viability (MEL cells): no effect

effect on the complex ([2]; at 5 μM, PtdIns(4,5)P—F PH domain complex (10 nM/500 nM) (FIG. 20)): no effect
Compound: D-myo-Phosphatidylinositol 4-phosphate [PtdIns4P]

effect on the complex ([2]; 10 nM-1 uM PtdIns(4,5)P—F PH domain complex (FIG. 7)): no effect
Compound: PtdIns5P

Compound: neurokinin A (HKTDSFVGLM; ends and bridges not checked; UniProt P20366 98-107, looked up) [growth factor used to stimulate PtdIns(4,5)P2 depletion]
PtdIns(4,5)P2 levels (GFP-PH probe at plasma membrane) after growth factor stimulation [3]: depletion

concentration at which unlabelled lipid disrupts the complex fully ([2]; 10 nM-1 uM PtdIns(4,5)P—F PH domain complex, duplicates (FIG. 7)): 1 mM | concentration at which unlabelled lipid disrupts the complex fully ([2]; PtdIns(4,5)P—F PH domain complex (10 nM/500 nM) (FIG. 20)): 0.00075 mM
Compound: phosphatidylinositol 4,5-bisphosphate [PtdIns(4,5) P2]
